The test system of the first experiment is Escherichia coli (ATCC25922) or Staphylococcus aureus (ATCC25923). As to the kind of experiment: Antibacterial MIC, microdilution method in Mueller-Hinton medium. It counts as cell-based. The settings on record: Escherichia coli, 18 h, MIC in E. coli or S. aureus; two-fold serial dilutions 64 to 0.5 μg/ml in duplicate; 18 hours of incubation at 35° C.; read-out: Potency (MIC). In short, it runs like this:
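Two-fold serial dilutions from 64 to 0.5 μg/ml, in duplicate, by broth microdilution in Mueller-Hinton medium (NCCLS M7-A5). MIC taken as the lowest concentration preventing visible growth after 18 h at 35° C.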
Regarding `Cl.Nc1ccc(Nc2nc(N3C[C@H](N)C[C@H](N)C3)nc(N3C[C@H](N)C[C@H](N)C3)n2)cc1` [N-(4-amino-phenyl)-4,6-Biss-((3R,5S)-3,5-diamino-piperidin-1-yl)-[1,3,5]triazine-2-amine], the minimal inhibitory concentration (MIC) is > 64 µg/mL. For the molecule `Cc1cc(NC(=O)c2ccccc2)c(Cl)cc1Nc1nc(N2CCCCC2)nc(N2CCCCC2)n1` [N-(4-benzoylamino-5-chloro-23-methyl-phenyl)-4,6-Bis((3R,5S)-3,5-diamino-piperidin-1-yl)-[1,3,5]triazine-2-amine], the MIC was > 64 µg/mL. For `N[C@@H]1C[C@H](N)CN(c2nc(Nc3ccc(Br)cc3)nc(N3C[C@H](N)C[C@H](N)C3)n2)C1` [N-(4-bromo-phenyl)-4,6-Bis-((3R,5S)-3,5-diamino-piperidin-1-yl)-[1,3,5]triazine-2-amine], the MIC is > 64 µg/mL.

Regarding `Cl.NC(=O)c1ccc(Nc2nc(N3C[C@H](N)C[C@H](N)C3)nc(N3C[C@H](N)C[C@H](N)C3)n2)cc1` [N-(4-carbamoyl-phenyl)-4,6-Bis-((3R,5S)-3,5-diamino-piperidin-1-yl)-[1,3,5]triazine-2-amine], the minimum inhibitory concentration (MIC) was > 64 µg/mL.

`Cc1cc(Cl)ccc1CNc1nc(N2CCCCC2)nc(N2CCCCC2)n1.Cl` [N-(4-chloro-2-methyl-benzyl)-44,6-Bis-((3R,5S)-3,5-diamino-piperidin-1-yl)-[1,3,5]triazine-2-amine]: the minimum inhibitory concentration (MIC) was > 64 µg/mL. Consider `Cl.N[C@@H]1C[C@H](N)CN(c2nc(Nc3ccc(O)c4ccccc34)nc(N3C[C@H](N)C[C@H](N)C3)n2)C1` [N-(4-hydroxy-naphthalen-1-yl)-4,6-Bis-((3R,5S)-3,5-diamino-piperidin-1-yl)-[1,3,5]triazine-2-amine], for which the MIC was < 16 µg/mL. On to `N[C@@H]1C[C@H](N)CN(c2nc(Nc3ccc(O)cc3)nc(N3C[C@H](N)C[C@H](N)C3)n2)C1` [N-(4-hydroxy-phenyl)-4,6-Bis-((3R,5S)-3,5-diamino-piperidin-1-yl)-[1,3,5]triazine-2-amine], for which the MIC was > 64 µg/mL. As to `COc1ccc(-c2ccccc2)cc1Nc1nc(N2C[C@H](N)C[C@H](N)C2)nc(N2C[C@H](N)C[C@H](N)C2)n1` [N-(4-methoxy-biphenyl-3-yl)-4,6-Bis-((3R,5S)-3,5-0diamino-piperidin-1-yl)-[1,3,5]triazine-2-amine], the MIC is < 64 µg/mL.

The experiment is the same for the next values; noted with them: Escherichia coli, 18 h, read-out: Potency (MIC).
Consider `Cc1ccc(NNc2nc(N3C[C@H](N)C[C@H](N)C3)nc(N3C[C@H](N)C[C@H](N)C3)n2)cc1` [N-(4,6-Bis-((3R,5S)-3,5-diamino-piperidin-1-yl)-[1,3,5]triazin-2-yl)-N′-p-Tolyl-hydrazine], for which the minimum inhibitory concentration (MIC) is < 64 µg/mL. The same measure, in the same setting: the result for `CC(=O)c1ccc(Nc2nc(N3C[C@H](N)C[C@H](N)C3)nc(N3C[C@H](N)C[C@H](N)C3)n2)cc1` [N-(4-acetyl-phenyl)-4,6-Bis-((3R,5S)-3,5-diamino-piperidin-1-yl)-[1,3,5]triazine-2-amine] reads < 64 µg/mL; that for `CC(=O)Nc1ccc(Nc2nc(N3C[C@H](N)C[C@H](N)C3)nc(N3C[C@H](N)C[C@H](N)C3)n2)cc1O` [N-(4-acetylamino-3-hydroxy-phenyl)-4,6-Bis-((3R,5S)-3,5-diamino-piperidin-1-yl)-[1,3,5]triazine-2-amine], > 64 µg/mL. Turning to `Nc1ccc(Nc2nc(N3C[C@H](N)C[C@H](N)C3)nc(N3C[C@H](N)C[C@H](N)C3)n2)cc1OCc1ccccc1` [N-(4-amino-3-benzyloxy-phenyl)-4,6-Bis-((3R,5S)-3,5-diamino-piperidin-1-yl)-[1,3,5]triazine-2-amine], the MIC is > 64 µg/mL. `N[C@@H]1C[C@H](N)CN(c2nc(Nc3ccc(NS(=O)(=O)c4ccccc4)c(O)c3)nc(N3C[C@H](N)C[C@H](N)C3)n2)C1` [N-(4-benzenesulfonylamino-3-hydroxy-phenyl)-4,6-Bis-((3R,5S)-3,5-diamino-piperidin-1-yl)-[1,3,5]triazine-2-amine]: the MIC is < 64 µg/mL. Regarding `N[C@@H]1C[C@H](N)CN(c2nc(Nc3ccc(C(=O)c4ccccc4)cc3)nc(N3C[C@H](N)C[C@H](N)C3)n2)C1` [N-(4-benzoyl-phenyl)-4,6-Bis-((3R,5S)-3,5-diamino-piperidin-1-yl)-[1,3,5]triazine-2-amine], the MIC was < 64 µg/mL. In the case of `N[C@@H]1C[C@H](N)CN(c2nc(Nc3ccc(NC(=O)c4ccccc4)c(O)c3)nc(N3C[C@H](N)C[C@H](N)C3)n2)C1` [N-(4-benzoylamino-3-hydroxy-phenyl)-4,6-Bis-((3R,5S)-3,5-diamino-piperidin-1-yl)-[1,3,5]triazine-2-amine], the minimum inhibitory concentration (MIC) is < 16 µg/mL. Regarding `Cc1cc(Br)ccc1Nc1nc(N2C[C@H](N)C[C@H](N)C2)nc(N2C[C@H](N)C[C@H](N)C2)n1` [N-(4-bromo-2-methyl-phenyl)-4,6-Bis-((3R,5S)-3,5-diamino-piperidin-1-yl)-[1,3,5]triazine-2-amine], the MIC was > 64 µg/mL. In the case of `CCCC(=O)Nc1ccc(Nc2nc(N3C[C@H](N)C[C@H](N)C3)nc(N3C[C@H](N)C[C@H](N)C3)n2)cc1O` [N-(4-butyrylamino-3-hydroxy-phenyl)-4,6-Bis-((3R,5S)-3,5-diamino-piperidin-1-yl)-[1,3,5]triazine-2-amine], the MIC is > 64 µg/mL.

In the case of `N[C@@H]1C[C@H](N)CN(c2nc(Nc3ccc(-n4c5ccccc5c5ccccc54)cc3)nc(N3C[C@H](N)C[C@H](N)C3)n2)C1` [N-(4-carbazol-9-yl-phenyl)-4,6-Bis-((3R,5S)-3,5-diamino-piperidin-1-yl)-[1,3,5]triazine-2-amine], the MIC was < 16 µg/mL. For `CCCCCCCCCC(=O)Nc1ccc(Nc2nc(N3C[C@H](N)C[C@H](N)C3)nc(N3C[C@H](N)C[C@H](N)C3)n2)cc1O` [N-(4-decanoylamino-3-hydroxy-phenyl)-4,6-Bis-((3R,5S)-3,5-diamino-piperidin-1-yl)-[1,3,5]triazine-2-amine], the MIC was < 16 µg/mL.

On to `CCN(CC)c1ccc(Nc2nc(N3C[C@H](N)C[C@H](N)C3)nc(N3C[C@H](N)C[C@H](N)C3)n2)cc1` [N-(4-diethylamino-phenyl)-4,6-Bis-((3R,5S)-3,5-diamino-piperidin-1-yl)-[1,3,5]triazine-2-amine], for which the minimal inhibitory concentration (MIC) was > 64 µg/mL.

For the molecule `CCCCCC(=O)Nc1ccc(Nc2nc(N3C[C@H](N)C[C@H](N)C3)nc(N3C[C@H](N)C[C@H](N)C3)n2)cc1O` [N-(4-hexanoylamino-3-hydroxy-phenyl)-4,6-Bis-((3R,5S)-3,5-diamino-piperidin-1-yl)-[1,3,5]triazine-2-amine], the minimal inhibitory concentration (MIC) was < 16 µg/mL. Same read-out and setting: under `CCCCCCOc1ccc(Nc2nc(N3C[C@H](N)C[C@H](N)C3)nc(N3C[C@H](N)C[C@H](N)C3)n2)cc1` [N-(4-hexyloxy-phenyl)-4,6-Bis-((3R,5S)-3,5-diamino-piperidin-1-yl)-[1,3,5]triazine-2-amine] stands < 16 µg/mL; under `COc1ccc(Nc2nc(N3C[C@H](N)C[C@H](N)C3)nc(N3C[C@H](N)C[C@H](N)C3)n2)c([N+](=O)[O-])c1` [N-(4-methoxy-2-nitro-phenyl)-4,6-Bis-((3R,5S)-3,5-diamino-piperidin-1-yl)-[1,3,5]triazine-2-amine], > 64 µg/mL. Turning to `COc1ccc(Nc2nc(N3C[C@H](N)C[C@H](N)C3)nc(N3C[C@H](N)C[C@H](N)C3)n2)cc1` [N-(4-methoxy-phenyl)-4,6-Bis-((3R,5S)-3,5-diamino-piperidin-1-yl)-[1,3,5]triazine-2-amine], the MIC is > 64 µg/mL.

Values taken from patent publication US7223759B2, “Antibacterial 3,5-diaminopiperidine-substituted aromatic and heteroaromatic compounds” (Anadys Pharmaceuticals, Inc., priority 2003, dated 2007).
